The text below walks through data of the supplement of paper PMC4862054.

Common to all, as to test: normalised response (% of control), CellTiter-Glo; higher = more viable cells (100 = DMSO, 0 = benzethonium chloride kill control)
Details in all cases: incubation time: 72 h
(ATP-based viability assays read luminescence as a measure of living cells.)

One assay deals with DU-4475. In outline: (§1)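 Normalised signals at single concentrations make up the values. They come from breast cancer cell lines seeded (20 µl suspension) into 384-well plates with compound at 5 concentrations in 10-fold steps over a compound-specific 10,000-fold range, incubated 72 h, and read for CellTox Green fluorescence then CellTiter-Glo luminescence. Each plate was normalised to 0.1 % DMSO (100) and a positive kill control (0).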

For a further assay, the system named is MDA-MB-436. In outline: as §1
A further assay deals with CAL-85-1. In outline:
as §1

For a further assay, the system named is MCF-10A. In outline:
as §1

The subject of the next assay is CAL-120. In outline:
as §1

The test system of another assay is Hs578T. In outline: as §1
Another assay concerns MDA-MB-231. In a few lines:
as §1

For a further assay, the system named is HCC1937. In outline: as §1
The test system of a further assay is MDA-MB-468. In outline:
as §1

The next assay deals with BT-549. In outline:
as §1

A further assay has as its system HCC1143. In outline:
as §1

The subject of a further assay is CAL-148. In a few lines: as §1
Another assay deals with HDQ-P1. In a few lines:
as §1

In the next assay the test system is CAL-51. In outline:
as §1

In a further assay the test system is BT-474. In outline: as §1
Another assay relates to MDA-MB-453. In outline:
as §1

A further assay relates to HCC1599. In outline:
as §1

A further assay has as its system MFM-223. In outline:
as §1

The test system of another assay is SK-BR-3. In outline:
as §1

For the compound `FC(F)c1nc2ccccc2n1-c1nc(N2CCOCC2)nc(N2CCOCC2)n1` [ZSTK474] (10 nM), the normalised response with DU-4475 was found to be 101%; in the assay with MDA-MB-436, 91.3%; with CAL-85-1 it was 92.5%; with MCF-10A it was 103%; in the assay with CAL-120 it was 96.9%; with Hs578T, 101%. Besides, the normalised response with MDA-MB-231 amounted to 89.9%; in the assay with HCC1937, 99.8%; in the assay with MDA-MB-468, 100%; in the assay on BT-549, 95.4%; in the assay on HCC1143, 97.6%; in the assay with CAL-148, 99.7%. The normalised response with HDQ-P1 was found to be 95%; in the assay on CAL-51, 75.5%; with BT-474, 98.2%; in the assay with MDA-MB-453, 101%; in the assay on HCC1599, 105%; in the assay with MFM-223 it was 100%.
On to `COC1=CC(c2cc3ccccc3[nH]2)=N/C1=C\c1[nH]c(C)cc1C` [Obatoclax] (10 nM), for which the normalised response with DU-4475 was found to be 100%; in the assay with MDA-MB-436, 91%; with CAL-85-1 it was 93.6%; in the assay with MCF-10A, 94.7%; with CAL-120 it was 98.8%; in the assay with Hs578T, 99.4%. Moreover, the normalised response in the assay with MDA-MB-231 came to 94.6%; in the assay on HCC1937, 94.6%; in the assay on SK-BR-3, 90.2%; with MDA-MB-468 it was 98.9%; in the assay on BT-549, 96.9%; with HCC1143 it was 95.5%. Also, the normalised response in the assay with CAL-148 turned out to be 89.9%; in the assay on HDQ-P1, 92.6%; in the assay with CAL-51 it was 121%; in the assay on BT-474, 95%; in the assay on MDA-MB-453 it was 104%; in the assay on HCC1599, 92.2%. Further, in the assay on MFM-223, the normalised response stood at 91.4%.
On to `C#Cc1cccc(Nc2ncnc3cc(OC)c(OCCCCCCC(=O)NO)cc23)c1` [CUDC-101] (10 nM), for which the normalised response was 99% with DU-4475; 105% in the assay with MDA-MB-436; 92.6% in the assay with CAL-85-1; 97.5% with MCF-10A; 99.8% with CAL-120; 96.4% in the assay with Hs578T. The normalised response in the assay on MDA-MB-231 turned out to be 98.1%; in the assay with HCC1937 it was 104%; with MDA-MB-468, 101%; in the assay on BT-549 it was 101%; with HCC1143, 99.9%; with CAL-148, 87.5%. Also, the normalised response with HDQ-P1 stood at 95.8%; with CAL-51, 84.9%; with BT-474, 98%; in the assay with MDA-MB-453, 103%; with HCC1599 it was 93.9%; with MFM-223, 100%.
For the compound `COc1ccc(C2=N[C@@H](c3ccc(Cl)cc3)[C@@H](c3ccc(Cl)cc3)N2C(=O)N2CCNC(=O)C2)c(OC(C)C)c1` [Nutlin-3] (10 nM), the normalised response with DU-4475 was found to be 104%; in the assay with MDA-MB-436, 99.9%; in the assay with CAL-85-1 it was 101%; in the assay on MCF-10A it was 99.6%; in the assay with CAL-120, 98.3%; in the assay with Hs578T, 104%. Moreover, the normalised response with MDA-MB-231 was determined as 100%; in the assay with HCC1937, 103%; with MDA-MB-468 it was 105%; in the assay on BT-549, 101%; in the assay on HCC1143, 106%; in the assay with CAL-148 it was 102%. The normalised response in the assay on HDQ-P1 came out at 100%; in the assay with CAL-51, 86.3%; with BT-474 it was 97.4%; in the assay on MDA-MB-453 it was 100%; in the assay on HCC1599, 104%; in the assay on MFM-223 it was 103%.
Turning to `C[C@@H]1CCN(C(=O)CC#N)C[C@@H]1N(C)c1ncnc2[nH]ccc12` [Tofacitinib] (5 nM), the normalised response with DU-4475 stood at 110%; in the assay with MDA-MB-436, 104%; with CAL-85-1, 112%; with MCF-10A, 108%; in the assay with CAL-120, 95.7%; in the assay on Hs578T it was 103%. Besides, the normalised response with MDA-MB-231 worked out at 103%; in the assay with HCC1937, 96.3%; in the assay on MDA-MB-468 it was 104%; with BT-549, 97.2%; in the assay on HCC1143, 105%; in the assay with CAL-148, 111%. Moreover, the normalised response came out at 103% in the assay with HDQ-P1; 122% in the assay on CAL-51; 114% in the assay with BT-474; 120% in the assay on MDA-MB-453; 115% in the assay on HCC1599; 101% in the assay on MFM-223.
